In US20250051263A1, “NOVEL IONIZABLE LIPIDS AND LIPID NANOPARTICLES AND METHODS OF USING THE SAME” (Sail Biomedicines, Inc., priority 2021, published 2025):

What was measured:
[1] = TNS (pKa) assay, apparent LNP pKa; assay type: physicochemical; details: Example 5 LNP lipid:DOPE:Plant Cholesterol:DMPE-PEG2k 35:16:46.5:2.5, FLUC/EPO 1:1 mRNA, N:P 6:1
Method: (protocol adapted from: A Novel Amino Lipid Series for mRNA Delivery: Improved Endosomal Escape and Sustained Pharmacology and Safety in Non-human Primates, Sabnis, Staci et al., Molecular Therapy, Volume 26, Issue 6, 1509-1519) 20 buffers (10 mM sodium phosphate, 10 mM sodium borate, 10 mM sodium citrate, and 150 mM sodium chloride, in Distilled Water) of unique pH values ranging from 3.0-12.0 were prepared using 1M sodium hydroxide and 1M hydrochloric acid. 3.25 uL of LNPs (0.04 mg/mL mRNA, in PBS) were incubated with 2 μL of TNS reagent (0.3 mM, in DMSO) and 90 μL of buffer for each pH value (described above) in a 96-well black-walled plate. Each pH condition was performed in triplicate wells. The TNS fluorescence was measured using a Biotek Cytation Plate reader at excitation/emission wavelengths of 321/445 nm. The fluorescence values were then plotted and fit using a 4-parameter sigmoid curve. From the fit, the pH value yielding the half-maximal fluorescence was calculated and reported as the apparent LNP pKa value.
For pKa measurement, a […] assay was conducted according to those described in Sabnis et al., Molecular Therapy, 26(6):1509-19), which is incorporated herein by reference in its entirety. Briefly, 20 buffers (10 mM sodium phosphate, 10 mM sodium borate, 10 mM sodium citrate, and 150 mM sodium chloride, in distilled Water) of unique pH values ranging from 3.0-12.0 were prepared using 1M sodium hydroxide and 1M hydrochloric acid. 3.25 μL of a LNP composition (0.04 mg/mL mRNA, in PBS) was incubated with 2 μL of TNS reagent (0.3 mM, in DMSO) and 90 μL of buffer for each pH value (described above) in a 96-well black-walled plate. Each pH condition was performed in triplicate wells. The TNS fluorescence was measured using a Biotek Cytation Plate reader at excitation/emission wavelengths of 321/445 nm. The fluorescence values were then plotted and fit using a 4-parameter sigmoid curve. From the fit, the pH value yielding the half-maximal fluorescence was calculated and reported as the apparent LNP pKa value.

Balb/c mice = assay: EPO levels in plasma by EPO MSD kit after IV injection of EPO mRNA LNP; assay type: in vivo; details: Example 5 LNP (DOPE 35:16:46.5:2.5), 5 μg FLUC + 5 μg EPO
Method: 8-9 week old female Balb/c mice are utilized for bioluminescence-based ionizable lipid screening efforts. Mice are obtained from Jackson Laboratories (JAX Stock: 000651) and allowed to acclimate for one week prior to manipulations. Animals are placed under a heat lamp for a few minutes before introducing them to a restraining chamber. The tail is wiped with alcohol pads (Fisher Scientific) and 100 μL of a lipid nanoparticle composition descrbed above containing 10 ug total mRNA (5 ug Fluc+5 ug EPO) is injected intravenously using a 29 G insulin syringe (Covidien). Any resulting bleeding is stemmed using a sterile gauze pad (Fisher Scientific) and animals are placed back into their home cage. 4-6 hours post-dose, animals are injected with 200 μL of 15 mg/mL D-Luciferin (GoldBio) and placed in an isoflurane induction chamber set to deliver 2.5% isoflurane delivered at an oxygen flow rate of 1-2 liters per min. After 5 minutes of isoflurane exposure, mice are placed in set nose cones inside the IVIS Lumina LT imager (PerkinElmer). LivingImage software is utilized for imaging. Whole body bio-luminescence is captured at auto-exposure after which animals are removed from the IVIS and placed into a CO2 chamber for euthanasia. Cardiac puncture is performed on each animal after placing it in dorsal recumbency, and blood collection is performed using a 25 G insulin syringe (BD). Blood is collected in Lithium-Heparin coated tubes (Fisher Scientific) and immediately placed on ice. Once all blood samples are collected, tubes are spun at 2000 G for 10 minutes using a tabletop centrifuge and plasma is aliquoted into individual Eppendorf tubes (Fisher Scientific) and stored at −80 C for subsequent EPO quantification. EPO levels in plasma are determined using EPO MSD kit (Meso Scale Diagnostics).
8-9 week old female Balb/c mice were utilized for bioluminescence-based ionizable lipid screening efforts. Mice were obtained from Jackson Laboratories (JAX Stock: 000651) and allowed to acclimate for one week prior to manipulations. Animals were placed under a heat lamp for a few minutes before introducing them to a restraining chamber. The tail was wiped with alcohol pads (Fisher Scientific) and, for each LNP composition descrbed above, 100 μL of a lipid nanoparticle composition descrbed above containing 10 μg total mRNA (5 μg Fluc+5 μg EPO, 5 μg Fluc+5 μg Cre, or 5 μg EGFP) was injected intravenously using a 29 G insulin syringe (Covidien).
4-6 hours post-dose, animals were injected with 200 μL of 15 mg/mL D-Luciferin (GoldBio), and placed in set nose cones inside the IVIS Lumina LT imager (PerkinElmer). LivingImage software was utilized for imaging. Whole body bio-luminescence was captured at auto-exposure after which animals are removed from the IVIS and placed into a CO2 chamber for euthanasia. Cardiac puncture was performed on each animal after placing it in dorsal recumbency, and blood collection was performed using a 25 G insulin syringe (BD). Once all blood samples were collected, tubes are spun at 2000 G for 10 minutes using a tabletop centrifuge and plasma was aliquoted into individual Eppendorf tubes (Fisher Scientific) and stored at −80° C. for subsequent EPO quantification. EPO levels in plasma were determined using EPO MSD kit (Meso Scale Diagnostics).

SMILES | pKa (TNS) [1] | hEPO (Balb/c mice)
CCCCCCCCCOC(=O)CCCCCCCN(CCCCCCCC(=O)OC(CCCCCCCC)CCCCCCCC)CCNC(=O)CCC(=O)NCCN(CCCCCCCC(=O)OCCCCCCCCC)CCCCCCCC(=O)OC(CCCCCCCC)CCCCCCCC [Compound 2213, nonyl 8-[2-[[4-[2-[(8-nonoxy-8-oxo-octyl)-[8-(1-octylnonoxy)-8-oxo-octyl]amino]ethylamino]-4-oxo-butanoyl]amino]ethyl-[8-(1-octylnonoxy)-8-oxo-octyl]amino]octanoate] | 6.54 | –
CCCCCCCCCCCOC(=O)CCCCCN(CCCCCCCC(=O)OC(CCCCCCCC)CCCCCCCC)CCNC(=O)NCCN(CCCCCCCC(=O)OC(CCCCCCCC)CCCCCCCC)CCCCCC(=O)OCCCCCCCCCCC [Compound 2246, 1-octylnonyl8-[2-[2-[[8-(1-octylnonoxy)-8-oxo-octyl]-(6-oxo-6-undecoxy-hexyl)amino]ethylcarbamoylamino]ethyl-(6-oxo-6-undecoxy-hexyl)amino]octanoate] | 6.63 | 3.6E+06
CCCCCCCCCCCOC(=O)CCCCCN(CCCCCCCC(=O)OC(CCCCCCCC)CCCCCCCC)CCN1CCN(CCN(CCCCCCCC(=O)OC(CCCCCCCC)CCCCCCCC)CCCCCC(=O)OCCCCCCCCCCC)CC1 [Compound 2248, 1-octylnonyl 8-[2-[4-[2-[[8-(1-octylnonoxy)-8-oxo-octyl]-(6-oxo-6-undecoxy-hexyl)amino]ethyl]piperazin-1-yl]ethyl-(6-oxo-6-undecoxy-hexyl)amino]octanoate] | 6.1 | –
CCCCCCCCCC(=O)OCCCCCCCN(CCCCCCCC(=O)OC(CCCCCCCC)CCCCCCCC)CCNC(=O)CCC(=O)NCCN(CCCCCCCOC(=O)CCCCCCCCC)CCCCCCCC(=O)OC(CCCCCCCC)CCCCCCCC [Compound 2272, 7-[2-[[4-[2-[7-decanoyloxyheptyl-[8-(1-octylnonoxy)-8-oxo-octyl]amino]ethylamino]-4-oxo-butanoyl]amino]ethyl-[8-(1-octylnonoxy)-8-oxo-octyl]amino]heptyl decanoate] | 6.48 | 1.8E+06
CCCCCCCCC(CCCCCCCC)OC(=O)CCCCCCCN(CCCCCCCC(=O)OC(CCCCCCCC)CCCCCCCC)CCNC(=O)CCC(=O)NCCN(CCCCCCCC(=O)OC(CCCCCCCC)CCCCCCCC)CCCCCCCC(=O)OC(CCCCCCCC)CCCCCCCC [Compound 2275, 1-octylnonyl 8-[2-[[4-[2-[bis[8-(1-octylnonoxy)-8-oxo-octyl]amino]ethylamino]-4-oxo-butanoyl]amino]ethyl-[8-(1-octylnonoxy)-8-oxo-octyl]amino] octanoate] | 6.03 | –
CCCCCCCCCCCNC(=O)CCCCCN(CCCCCCCC(=O)NC(CCCCCCCC)CCCCCCCC)CCNC(=O)CCC(=O)NCCN(CCCCCCCC(=O)NC(CCCCCCCC)CCCCCCCC)CCCCCC(=O)NCCCCCCCCCCC [Compound 2282, N,N′-bis[2-[[8-(1-octylnonylamino)-8-oxo-octyl]-[6-oxo-6-(undecylamino)hexyl]amino]ethyl]butanediamide] | 6.92 | –
CCCCCCCCC(CCCCCCCC)OC(=O)CCCCCCCN(CCCCCCCC(=O)OC(CCCCCCCC)CCCCCCCC)CCNC(=O)CCCC(=O)NCCN(CCCCCCCC(=O)OC(CCCCCCCC)CCCCCCCC)CCCCCCCC(=O)OC(CCCCCCCC)CCCCCCCC [Compound 2320, 1-octylnonyl 8-[2-[[5-[2-[bis[8-(1-octylnonoxy)-8-oxo-octyl]amino]ethylamino]-5-oxo-pentanoyl]amino]ethyl-[8-(1-octylnonoxy)-8-oxo-octyl]amino]octanoate] | 6.07 | –
CCCCCC(CCCCC)CCCOC(=O)CCCCCCCN(CCCCCCCC(=O)OCCCC(CCCCC)CCCCC)CCNC(=O)CCC(=O)NCCN(CCCCCCCC(=O)OCCCC(CCCCC)CCCCC)CCCCCCCC(=O)OCCCC(CCCCC)CCCCC [Compound 2332, bis(4-pentyl-nonyl)13,16-dioxo-9,20-bis(8-oxo-8-((4-pentylnon-yl)oxy)octyl)-9,12,17,20-tetraazaocta-cosanedioate] | 6.57 | –
CCCCCCCCCCCOC(=O)CCCCCN(CCCCCCCC(=O)OC(CCCCCCCC)CCCCCCCC)CCCNC(=O)CN(CC(=O)NCCCN(CCCCCCCC(=O)OC(CCCCCCCC)CCCCCCCC)CCCCCC(=O)OCCCCCCCCCCC)C(=O)CCN1CCCC1 [Compound 2353, 1-octylnonyl8-[3-[[2-[[2-[3-[[8-(1-octylnonoxy)-8-oxo-octyl]-(6-oxo-6-undecoxy-hexyl)amino]propylamino]-2-oxo-ethyl]-(3-pyrrolidin-1-ylpropanoyl)amino]acetyl]amino]propyl-(6-oxo-6-undecoxy-hexyl)amino]octanoate] | 7.01 | 9.7E+03
CCCCCCCCCC(C)COC(=O)CCCCCN(CCCCCCCC(=O)OC(CCCCCCCC)CCCCCCCC)CCNC(=O)CCC(=O)NCCN(CCCCCCCC(=O)OC(CCCCCCCC)CCCCCCCC)CCCCCC(=O)OCC(C)CCCCCCCCC (stereo not shown) [Compound 2355, 1-octylnonyl 8-[[6-(2-methylundecoxy)-6-oxo-hexyl]-[2-[[4-[2-[[6-(2-methylundecoxy)-6-oxo-hexyl]-[8-(1-octylnonoxy)-8-oxo-octyl]amino]ethylamino]-4-oxo-butanoyl]amino]ethyl]amino]octanoate] | 6.2 | –
CCCCCCCCCCC(CC)OC(=O)CCCCCN(CCCCCCCC(=O)OC(CCCCCCCC)CCCCCCCC)CCNC(=O)/C=C/C(=O)NCCN(CCCCCCCC(=O)OC(CCCCCCCC)CCCCCCCC)CCCCCC(=O)OC(CC)CCCCCCCCCC (stereo not shown) [Compound 2378, 1-octylnonyl 8-[[6-(1-ethylundecoxy)-6-oxo-hexyl]-[2-[[(E)-4-[2-[[6-(1-ethylundecoxy)-6-oxo-hexyl]-[8-(1-octylnonoxy)-8-oxo-octyl]amino]ethylamino]-4-oxo-but-2-enoyl]amino]ethyl]amino]octanoate] | 6.33 | –
CCCCCCCCCCCOC(=O)CCCCCN(CCCCCCCC(=O)OCCCC(CCCCC)CCCCC)CCNC(=O)/C=C/C(=O)NCCN(CCCCCCCC(=O)OCCCC(CCCCC)CCCCC)CCCCCC(=O)OCCCCCCCCCCC [Compound 2382, 4-pentylnonyl 8-[2-[[(E)-4-oxo-4-[2-[[8-oxo-8-(4-pentylnonoxy)octyl]-(6-oxo-6-undecoxy-hexyl)amino]ethylamino]but-2-enoyl]amino]ethyl-(6-oxo-6-undecoxy-hexyl)amino]octanoate] | 6.97 | –
CCCCCCCCCCCOC(=O)CCCCCN(CCCCCCCC(=O)OC(CCCCCC)CCCCCCCC)CCNC(=O)CCC(=O)NCCN(CCCCCCCC(=O)OC(CCCCCC)CCCCCCCC)CCCCCC(=O)OCCCCCCCCCCC (stereo not shown) [Compound 2390, 1-hexylnonyl 8-[2-[[4-[2-[[8-(1-hexylnonoxy)-8-oxo-octyl]-(6-oxo-6-undecoxy-hexyl)amino]ethylamino]-4-oxo-butanoyl]amino]ethyl-(6-oxo-6-undecoxy-hexyl)amino]octanoate] | 6.82 | –
